Results: patent publication US12570638B2, “Fused imidazole derivatives as AHR antagonists” (Sail Biomedicines, Inc., priority 2020, dated 2026)
In brackets after ≈: the same amount, converted by molar mass. Read-outs that look alike come from different tables or passages of the source.

Key:
[1] = Liver Microsome Stability Assay, human; assay type: in vitro ADME; details: human liver microsomes, with NADPH, 1 μM compound, read-out: Human liver microsome clearance
Experimental: The master solution was prepared according to Table 6.
Two separate experiments were performed as follows.
With Cofactors (NADPH): 25 μL of 10 mM NADPH was added to the incubations. The final concentrations of microsomes and NADPH were 0.5 mg/mL and 1 mM, respectively. The final concentration of microsomes was 0.5 mg/mL. The mixture was pre-warmed at 37° C. for 10 minutes. The reaction was started with the addition of 2.5 μL of 100 μM control compound or test compound solutions. Verapamil was used as positive control in this study. The final concentration of test compound or control compound was 1 μM. The incubation solution was incubated in water batch at 37° C. Aliquots of 25 μL were taken from the reaction solution at 0.5, 5, 15, 30 and 60 minutes. The reaction was stopped by the addition of 5 volumes of cold acetonitrile with IS (200 nM caffeine and 100 nM tolbutamide). Samples were centrifuged at 3, 220 g for 40 minutes. Aliquot of 100 μL of the supernatant was mixed with 100 μL of ultra-pure H2O and then used for LC-MS/MS analysis.
Data Analysis: All calculations were carried out using Microsoft Excel. Peak areas were determined from extracted ion chromatograms. The slope value, k, was determined by linear regression of the natural logarithm of the remaining percentage of the parent drug vs. incubation time curve.
The in vitro half-life (in vitro t1/2) was determined from the slope value: in vitro t1/2=−([…]/k)
Conversion of the in vitro t1/2 (min) into the in vitro intrinsic clearance (in vitro CLint, in μL/min/mg protein) was done using the following equation (mean of duplicate determinations):
The calculations of Scaled-up CLint (mL/min/kg), Predicted CLH (mL/min/kg) and EH were done using the following equation: Scaled-up CLint=(0.693/t1/2)×(1/(microsomal protein concentration(0.5 mg/mL)))×Scaling Factors; Predicted CLH=(QH×Scaled-up CLint×fub)/(QH+Scaled-up CLint×fub); EH=Predicted CLH/QH • where QH is the hepatic blood flow (mL/min/kg) (Table 7), • fub is the fraction of unbound drug in plasma which is assumed to be 1. […]

AHR = molecular target: T1, AHR (Homo sapiens, UniProt P35869); test: DRE-Luciferase Reporter Assay (HepG2 AhR-Lucia reporter cells); assay type: cell-based; details: luciferase activity with AHR activating ligand at EC50, read-out: HepG2-Luc IC50
T1 construct: other cell line with a DRE-luciferase reporter stably transfected; endogenous in cells; host or cells: Human HepG2 liver carcinoma AhR-Lucia reporter cells
T1 sequence (P35869 11-848): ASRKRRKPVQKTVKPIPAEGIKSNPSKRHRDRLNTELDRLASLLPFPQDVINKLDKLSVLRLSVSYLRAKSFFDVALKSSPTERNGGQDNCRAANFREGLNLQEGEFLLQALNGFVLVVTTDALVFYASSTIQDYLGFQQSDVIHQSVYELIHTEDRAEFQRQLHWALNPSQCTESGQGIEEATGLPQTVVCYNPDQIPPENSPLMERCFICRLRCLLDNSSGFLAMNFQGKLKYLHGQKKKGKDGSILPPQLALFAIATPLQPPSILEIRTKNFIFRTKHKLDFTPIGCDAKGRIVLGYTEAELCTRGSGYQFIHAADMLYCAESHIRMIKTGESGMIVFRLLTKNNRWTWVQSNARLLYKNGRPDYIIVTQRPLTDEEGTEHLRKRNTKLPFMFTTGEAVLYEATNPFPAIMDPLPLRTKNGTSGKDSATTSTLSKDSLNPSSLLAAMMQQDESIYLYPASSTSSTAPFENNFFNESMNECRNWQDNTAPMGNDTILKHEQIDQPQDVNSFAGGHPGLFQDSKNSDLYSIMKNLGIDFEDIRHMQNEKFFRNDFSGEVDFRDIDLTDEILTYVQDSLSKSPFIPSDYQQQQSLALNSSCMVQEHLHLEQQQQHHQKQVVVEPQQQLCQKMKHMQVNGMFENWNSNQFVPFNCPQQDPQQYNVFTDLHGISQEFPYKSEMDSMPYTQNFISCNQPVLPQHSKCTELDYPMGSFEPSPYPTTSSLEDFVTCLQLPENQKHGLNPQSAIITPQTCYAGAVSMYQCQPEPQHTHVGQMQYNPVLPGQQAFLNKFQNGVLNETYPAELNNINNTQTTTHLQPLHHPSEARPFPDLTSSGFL
Source text: AHR binds to Dioxin Responsive Elements (DRE) upstream of genes that it activates. One measure of AHR activity is activation of a reporter gene, such as luciferase, downstream of one or multiple DRE elements. Luciferase activity will reflect activation and inhibition of AHR in the cells expressing his reporter. 20000 Human HepG2 liver carcinoma—AhR-Lucia reporter cells or Human HT29 colon adenocarcinoma—AhR reporter cells or other cell line with a DRE-luciferase reporter stably transfected were plated in Eagle's Minimal Essential Medium, 10% heat-inactivated FBS, 1× non-essential amino acids Pen-Strep (10,000 U/mL) and Normocin (100 ug/mL) in plates (96-well, 384-well or other plates) and incubated overnight at 37° C. in a CO2 incubator and treated with and without AhR antagonists at a log dilution starting at 100 uM.
After 1 hr that cells were plated an AHR activating ligand, such as TCDD, kynurenine, ITE (2-(1H-indole-3-ylcarbonyl)-4-thiazolecarboxylic methyl ester), VAF347, BNF (beta-naphthoflavone), FICZ (6-formylindolo(3,2-b) carbazole) or other AHR ligands at their specific EC50 concentration, were added to the cells with or without AHR antagonist.
Cells were incubated for 24 or 48 hours or another time point and then, supernatant was analyzed for determination of luciferase activity as a read-out of the AHR activation or inhibition. Luciferase was measured with the commercial kit QUANTI-Luc™ assay solution kit from Invivogen following the manufacturer's instructions.
The level of luciferase with only agonist ligand added was the maximum signal while the luciferase with […] was the minimum signal. IC50 values were determined as the concentration which inhibits half of the luciferase activity.

[2] = Solubility Determination Assay (PBS, LC-MS/MS); assay type: physicochemical; details: aqueous buffer, kinetic from dmso stock
Experimental: The stock solutions of test compounds and control compound progesterone were prepared in DMSO at the concentrations of 10 mM. 15 μL of stock solution (10 mM) of each sample was placed in order into their proper 96-well rack. 485 μL of PBS pH 1.6 and pH 7.4 were added into each vial of the cap-less Solubility Sample plate. The assay was performed in singlet. One stir stick was added to each vial and then the vial was sealed using a molded PTFE/Silicone plug. […] After completion of the 2 hours, plugs were removed and the stir sticks were removed using a big magnet. The samples from the Solubility Sample plate were transferred into the filter plate. Using the Vacuum Manifold, all the samples were filtered. An aliquot of 5 μL was taken from the filtrate followed by addition of 495 μL of a mixture of H2O and acetonitrile containing internal standard (1:1). A certain proportion of ultrapure water was used to dilute the diluent according to the peak shape. The dilution factor was changed according to the solubility values and the LC-MS signal response.
From the 10 mM DMSO STD plate, 6 μL was transferred into the remaining empty plate, and then 194 μL of DMSO were added to that plate to have a STD concentration of 300 μM. From the 300 μM DMSO STD plate, 5 μL were transferred into the remaining empty plate, and then 495 μL of a mixture of H2O and acetonitrile containing internal standard (1:1) were added to that plate to have a final STD concentration of 3 μM. A certain proportion of ultrapure water was used to dilute the diluent according to the peak shape. The concentrations of the standard samples were changed according to the LC-MS signal response.
The plate was placed into the well plate autosampler. The samples were evaluated by LC-MS/MS analysis.
All calculations were carried out using Microsoft Excel.
The filtrate was analyzed and quantified against a standard of known concentration using LC coupled with mass spectral peak identification and quantitation. Solubility values of the test compound and control compound were calculated as follows: […]
Any value of the compounds that was not within the specified limits was rejected and the experiment was repeated.
“+++” indicates a solubility value equal to or greater than 10 μM, “++” indicates a solubility value between 1 and 10 μM, and “+” indicates a solubility value less than 1 μM.

[3] = PBS pH 1.6, 25° C., read-out: Aq. Solubility at pH = 1.6
[4] = PBS pH 7.4, 25° C., read-out: Aq. Solubility at pH = 7.4

| CLint scaled at 1 μM [1] | IC50 (AHR) | solubility at 2 h [2, 3] | solubility at 2 h [2, 4] | Structure (SMILES) |
| --- | --- | --- | --- | --- |
| < 10 mL/min/kg | 100 to 500 nM | > 10 µM | 1 to 10 µM (≈ 0.367 to 3.67 µg/mL) | Cn1nccc1C(=O)Nc1ccc2nc(-c3ccccc3C(F)F)[nH]c2c1 [Compound C, N-(2-(2-(difluoromethyl)phenyl)-1H-benzo[d]imidazol-6-yl)-1-methyl-1H-pyrazole-5-carboxamide] |
| – | 100 to 500 nM | – | – | Cc1ccccc1-c1nc2ccc(NC(=O)c3ccnn3C)cc2[nH]1 [B, 1-methyl-N-(2-(o-tolyl)-1H-benzo[d]imidazol-6-yl)-1H-pyrazole-5-carboxamide] |
| – | 100 to 500 nM | – | – | Cc1ccccc1-c1nc2ccc(NC(=O)c3ncnn3C)cc2[nH]1 [G, 1-methyl-N-(2-(o-tolyl)-1H-benzo[d]imidazol-6-yl)-1H-1,2,4-triazole-5-carboxamide] |
| – | < 100 nM | > 10 µM | 1 to 10 µM (≈ 0.368 to 3.68 µg/mL) | Cn1ncnc1C(=O)Nc1ccc2nc(-c3ccccc3C(F)F)[nH]c2c1 [D, N-(2-(2-(difluoromethyl)phenyl)-1H-benzo[d]imidazol-6-yl)-1-methyl-1H-1,2,4-triazole-5-carboxamide] |
